In US9730914B2, “3,5-diaminopyrazole kinase inhibitors” (Axikin Pharmaceuticals, Inc., priority 2014, dated 2017):

Columns and labels:
[1] = target: T1, kinase domain protein of RC kinase (RCK) (Homo sapiens, UniProt Q56UN5); assay: Kinase competition binding assay (Kd, qPCR readout), RC kinase; details: Kd class, read-out: RCK Activity Level
T1 construct: made in house; host or cells: E. coli BL21-derived host (T7 phage) or HEK-293
T1 sequence (Q56UN5 1061-1324 limits assumed): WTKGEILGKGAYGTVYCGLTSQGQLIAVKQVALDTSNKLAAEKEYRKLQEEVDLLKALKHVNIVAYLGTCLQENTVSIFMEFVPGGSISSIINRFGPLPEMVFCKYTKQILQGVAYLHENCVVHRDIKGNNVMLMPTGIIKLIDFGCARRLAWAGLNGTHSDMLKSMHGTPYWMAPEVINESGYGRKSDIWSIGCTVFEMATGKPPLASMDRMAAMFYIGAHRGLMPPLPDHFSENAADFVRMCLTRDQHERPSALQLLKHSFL
Method: (§1) For most assays, kinase-tagged T7 phage strains were prepared in an E. coli host derived from the BL21 strain. E. coli were grown to log-phase and infected with T7 phage and incubated with shaking at 32° C. until lysis. The lysates were centrifuged and filtered to remove cell debris. The remaining kinases were produced in HEK-293 cells and subsequently tagged with DNA for quantitative PCR (qPCR) detection.
(§2) Streptavidin-coated magnetic beads were treated with biotinylated small molecule ligands for 30 minutes at room temperature to generate affinity resins for kinase assays. The liganded beads were blocked with excess biotin and washed with blocking buffer (SeaBlock (Pierce), 1% BSA, 0.05% Tween 20, 1 mM DTT) to remove unbound ligand and to reduce nonspecific binding. Binding reactions were assembled by combining kinases, liganded affinity beads, and test compounds in 1× binding buffer (20% SeaBlock, 0.17×PBS, 0.05% Tween 20, 6 mM DTT). All reactions were performed in polystyrene 96-well plates in a final volume of 0.135 mL. The assay plates were incubated at room temperature with shaking for 1 hour and the affinity beads were washed with wash buffer (1×PBS, 0.05% Tween 20). The beads were then re-suspended in elution buffer (1×PBS, 0.05% Tween 20, 0.5 μM non-biotinylated affinity ligand) and incubated at room temperature with shaking for 30 minutes. The kinase concentration in the eluates was measured by qPCR.
(§3) An 11-point 3-fold serial dilution of each test compound was prepared in 100% DMSO at 100× final test concentration and subsequently diluted to 1× in the assay (final DMSO concentration=1%). Most Kd values were determined using a compound top concentration=30,000 nM. If the initial Kd determined was <0.5 nM, (the lowest concentration tested), the measurement was repeated with a serial dilution starting at a lower top concentration. A more detailed description of this assay may be found in Fabian, M. A. et al. Nat. Biotechnol. 2005, 23, 329-336, which is incorporated herein in its entirety.
(§4) The biological results of inhibition of the kinase domain protein of RC kinase (RCK) and JAK2 and JAK3 are summarized in Tables 2 and 3, wherein A represents a Kd of <50 nM; B represents 50 nM<Kd<100 nM; C represents 100 nM<Kd<1000 nM; and D represents a Kd>1000 nM.

[2] = target: T2, JAK2 (Homo sapiens, UniProt O60674); assay: Kinase competition binding assay (Kd, qPCR readout), JAK2; details: for Kd: Kd class, JAK2, read-out: JAK2 Activity Level; for RCK:JAK2 selectivity ratio: ratio Kd (JAK2): Kd(RCK)
T2 construct: made in house; host or cells: E. coli BL21-derived host (T7 phage) or HEK-293
Method: as §1, §2, §3, §4
Additionally, RCK:JAK2 selectivity, as measured by the ratio Kd (JAK2): Kd(RCK) is represented as follows: A represents Kd (JAK2): Kd (RCK)>100; B represents 10<Kd(JAK2): Kd (RCK)<100; C represents 1<Kd (JAK2): Kd (RCK)<10; and D represents Kd(JAK2): Kd (RCK)<1.

[3] = target: T3, JAK3 (Homo sapiens, UniProt P52333); assay: Kinase competition binding assay (Kd, qPCR readout), JAK3; details: for Kd: Kd class, JAK3, read-out: JAK3 Activity Level; for RCK:JAK3 selectivity ratio: ratio Kd (JAK3): Kd (RCK)
T3 construct: made in house; host or cells: E. coli BL21-derived host (T7 phage) or HEK-293
Method: as §1, §2, §3, §4
Similarly, RCK:JAK3 selectivity, as measured by the ratio Kd (JAK3): Kd (RCK) is represented as follows: A represents Kd (JAK3): Kd (RCK)>100; B represents 10<Kd (JAK3): Kd (RCK)<100; C represents 1<Kd (JAK3): Kd (RCK)<10; and D represents Kd (JAK3): Kd(RCK)<1.

T2 sequence (O60674 840-1132 limits assumed): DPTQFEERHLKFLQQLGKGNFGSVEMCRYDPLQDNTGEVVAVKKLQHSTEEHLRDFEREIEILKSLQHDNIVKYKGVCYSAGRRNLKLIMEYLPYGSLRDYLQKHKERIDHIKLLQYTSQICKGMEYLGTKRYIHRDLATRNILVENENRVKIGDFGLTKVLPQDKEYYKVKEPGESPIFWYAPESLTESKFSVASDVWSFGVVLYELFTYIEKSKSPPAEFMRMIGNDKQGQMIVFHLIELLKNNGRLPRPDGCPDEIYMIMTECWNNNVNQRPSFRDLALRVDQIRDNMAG
T3 sequence (P52333 811-1124 limits assumed): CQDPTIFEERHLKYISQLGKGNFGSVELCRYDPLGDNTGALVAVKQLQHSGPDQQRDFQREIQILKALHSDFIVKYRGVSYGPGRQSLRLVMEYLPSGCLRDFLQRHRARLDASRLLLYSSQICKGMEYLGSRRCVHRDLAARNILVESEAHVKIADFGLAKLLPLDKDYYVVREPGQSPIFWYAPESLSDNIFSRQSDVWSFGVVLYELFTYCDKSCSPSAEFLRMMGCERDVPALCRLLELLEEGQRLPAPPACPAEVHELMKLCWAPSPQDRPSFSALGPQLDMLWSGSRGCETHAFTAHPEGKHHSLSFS

Cc1cc(CNc2[nH]nc(Nc3ccc(-n4ccnc4)cc3)c2C(N)=O)cc(C)c1O [Compound 19, 3-((4-(1H-imidazol-1-yl)phenyl)amino)-5-((4-hydroxy-3,5-dimethylbenzyl)amino)-1H-pyrazole-4-carboxamide]
Kd [1]: 100 to 1000 nM
Kd [2]: > 1000 nM
RCK:JAK2 selectivity ratio [2]: A (A represents Kd (JAK2): Kd (RCK)>100)
Kd [3]: > 1000 nM
RCK:JAK3 selectivity ratio [3]: A (A represents Kd (JAK3): Kd (RCK)>100)

NC(=O)c1c(Nc2ccc(N3CCOCC3=O)cc2)n[nH]c1NCc1ccc(O)cc1 [reference compound]
Kd [1]: < 50 nM
Kd [2]: < 50 nM
RCK:JAK2 selectivity ratio [2]: D (D represents Kd(JAK2): Kd (RCK)<1)
Kd [3]: < 50 nM
RCK:JAK3 selectivity ratio [3]: C (C represents 1<Kd (JAK3): Kd (RCK)<10)

Cc1cc(CNc2[nH]nc(Nc3ccc(N4CCN(Cc5ccccc5)CC4)cc3)c2C(N)=O)cc(C)c1O [Compound 31, 3-((4-(4-benzylpiperazin-1-yl)phenyl)amino)-5-((4-hydroxy-3,5-dimethylbenzyl)amino)-1H-pyrazole-4-carboxamide]
Kd [1]: < 50 nM
Kd [2]: > 1000 nM
RCK:JAK2 selectivity ratio [2]: B (B represents 10<Kd(JAK2): Kd (RCK)<100)
Kd [3]: > 1000 nM
RCK:JAK3 selectivity ratio [3]: B (B represents 10<Kd (JAK3): Kd (RCK)<100)

Cc1cc(CNc2[nH]nc(Nc3ccc(N4CCN(C)CC4)cc3)c2C(N)=O)cc(C)c1O [Compound 10, 5-((4-hydroxy-3,5-dimethylbenzyl)amino)-3-((4-(4-methylpiperazin-1-yl)phenyl)amino)-1H-pyrazole-4-carboxamide]
Kd [1]: 50 to 100 nM
Kd [2]: > 1000 nM
RCK:JAK2 selectivity ratio [2]: B (B represents 10<Kd(JAK2): Kd (RCK)<100)
Kd [3]: > 1000 nM
RCK:JAK3 selectivity ratio [3]: A (A represents Kd (JAK3): Kd (RCK)>100)

Cc1cc(CNc2[nH]nc(Nc3ccc4[nH]ncc4c3)c2C(N)=O)cc(C)c1O [Compound 22, 3-((1H-indazol-5-yl)amino)-5-((4-hydroxy-3,5-dimethylbenzyl)amino)-1H-pyrazole-4-carboxamide]
Kd [1]: 100 to 1000 nM
Kd [2]: > 1000 nM
RCK:JAK2 selectivity ratio [2]: C (C represents 1<Kd (JAK2): Kd (RCK)<10)
Kd [3]: > 1000 nM
RCK:JAK3 selectivity ratio [3]: B (B represents 10<Kd (JAK3): Kd (RCK)<100)

NC(=O)c1c(Nc2ccc(N3CCOCC3)cc2)n[nH]c1NCc1ccc(O)cc1 [reference compound]
Kd [1]: < 50 nM
Kd [2]: < 50 nM
RCK:JAK2 selectivity ratio [2]: D (D represents Kd(JAK2): Kd (RCK)<1)
Kd [3]: < 50 nM
RCK:JAK3 selectivity ratio [3]: C (C represents 1<Kd (JAK3): Kd (RCK)<10)

COc1ccc(C(=O)Nc2ccc(Nc3n[nH]c(NCc4ccc(O)cc4)c3C(N)=O)cc2)cc1 [reference compound]
Kd [1]: < 50 nM
Kd [2]: < 50 nM
RCK:JAK2 selectivity ratio [2]: B (B represents 10<Kd(JAK2): Kd (RCK)<100)
Kd [3]: < 50 nM
RCK:JAK3 selectivity ratio [3]: B (B represents 10<Kd (JAK3): Kd (RCK)<100)

Cc1cc(CNc2[nH]nc(Nc3ccc(N4CCN(C(C)C)CC4)cc3)c2C(N)=O)cc(C)c1O [Compound 1, 5-((4-hydroxy-3,5-dimethylbenzyl)amino)-3-((4-(4-isopropylpiperazin-1-yl)phenyl)amino)-1H-pyrazole-4-carboxamide]
Kd [1]: < 50 nM
Kd [2]: 100 to 1000 nM
RCK:JAK2 selectivity ratio [2]: A (A represents Kd (JAK2): Kd (RCK)>100)
Kd [3]: 100 to 1000 nM
RCK:JAK3 selectivity ratio [3]: A (A represents Kd (JAK3): Kd (RCK)>100)

NC(=O)c1c(Nc2ccc(N3CCOCC3)c(F)c2)n[nH]c1NCc1ccc(O)cc1 [reference compound]
Kd [1]: < 50 nM
Kd [2]: < 50 nM
Kd [3]: < 50 nM

COc1ccccc1C(=O)Nc1ccc(Nc2n[nH]c(NCc3ccc(O)cc3)c2C(N)=O)cc1 [reference compound]
Kd [1]: < 50 nM
Kd [2]: < 50 nM
RCK:JAK2 selectivity ratio [2]: B (B represents 10<Kd(JAK2): Kd (RCK)<100)
Kd [3]: < 50 nM
RCK:JAK3 selectivity ratio [3]: B (B represents 10<Kd (JAK3): Kd (RCK)<100)

NC(=O)c1c(Nc2ccc(N3CCC(F)CC3)cc2)n[nH]c1NCc1ccc(O)cc1 [reference compound]
Kd [1]: < 50 nM
Kd [2]: < 50 nM
RCK:JAK2 selectivity ratio [2]: D (D represents Kd(JAK2): Kd (RCK)<1)
Kd [3]: < 50 nM
RCK:JAK3 selectivity ratio [3]: D (D represents Kd (JAK3): Kd(RCK)<1)

Cc1cc(CNc2[nH]nc(Nc3ccc(N4CCCCC4)cc3)c2C(N)=O)cc(C)c1O [Compound 27, 5-((4-hydroxy-3,5-dimethylbenzyl)amino)-3-((4-(piperidin-1-yl)phenyl)amino)-1H-pyrazole-4-carboxamide]
Kd [1]: 100 to 1000 nM
Kd [2]: > 1000 nM
RCK:JAK2 selectivity ratio [2]: B (B represents 10<Kd(JAK2): Kd (RCK)<100)
Kd [3]: > 1000 nM
RCK:JAK3 selectivity ratio [3]: B (B represents 10<Kd (JAK3): Kd (RCK)<100)

COc1cccc(Nc2n[nH]c(NCc3ccc(O)cc3)c2C(N)=O)c1 [reference compound]
Kd [1]: < 50 nM
Kd [2]: < 50 nM
RCK:JAK2 selectivity ratio [2]: D (D represents Kd(JAK2): Kd (RCK)<1)
Kd [3]: < 50 nM
RCK:JAK3 selectivity ratio [3]: D (D represents Kd (JAK3): Kd(RCK)<1)

Cc1cc(Nc2n[nH]c(NCc3cc(C)c(O)c(C)c3)c2C(N)=O)ccc1N1CCN(C)CC1 [Compound 29, 5-((4-hydroxy-3,5-dimethylbenzyl)amino)-3-((3-methyl-4-(4-methylpiperazin-1-yl)phenyl)amino)-1H-pyrazole-4-carboxamide]
Kd [1]: < 50 nM
Kd [2]: 100 to 1000 nM
RCK:JAK2 selectivity ratio [2]: B (B represents 10<Kd(JAK2): Kd (RCK)<100)
Kd [3]: > 1000 nM
RCK:JAK3 selectivity ratio [3]: B (B represents 10<Kd (JAK3): Kd (RCK)<100)

CN1CCN(c2ccc(Nc3n[nH]c(NCc4ccc(O)cc4)c3C(N)=O)cc2)CC1 [reference compound]
Kd [1]: < 50 nM
Kd [2]: < 50 nM
RCK:JAK2 selectivity ratio [2]: C (C represents 1<Kd (JAK2): Kd (RCK)<10)
Kd [3]: < 50 nM
RCK:JAK3 selectivity ratio [3]: C (C represents 1<Kd (JAK3): Kd (RCK)<10)

Cc1cc(CNc2[nH]nc(Nc3ccc(N4CCN(C)CC4)c(Cl)c3)c2C(N)=O)cc(C)c1O [Compound 41, 3-((3-chloro-4-(4-methylpiperazin-1-yl)phenyl)amino)-5-((4-hydroxy-3,5-dimethylbenzyl)amino)-1H-pyrazole-4-carboxamide]
Kd [1]: < 50 nM
Kd [2]: 100 to 1000 nM
RCK:JAK2 selectivity ratio [2]: B (B represents 10<Kd(JAK2): Kd (RCK)<100)
Kd [3]: > 1000 nM
RCK:JAK3 selectivity ratio [3]: A (A represents Kd (JAK3): Kd (RCK)>100)

Cc1cc(CNc2[nH]nc(Nc3ccc(N4CCOCC4)c(F)c3)c2C(N)=O)cc(C)c1O [Compound 37, 3-((3-fluoro-4-morpholinophenyl)amino)-5-((4-hydroxy-3,5-dimethylbenzyl)amino)-1H-pyrazole-4-carboxamide]
Kd [1]: < 50 nM
Kd [2]: > 1000 nM
RCK:JAK2 selectivity ratio [2]: B (B represents 10<Kd(JAK2): Kd (RCK)<100)
Kd [3]: > 1000 nM
RCK:JAK3 selectivity ratio [3]: A (A represents Kd (JAK3): Kd (RCK)>100)

Cc1cc(CNc2[nH]nc(Nc3ccc(N4CCC(F)CC4)cc3)c2C(N)=O)cc(C)c1O [Compound 25, 3-((4-(4-fluoropiperidin-1-yl)phenyl)amino)-5-((4-hydroxy-3,5-dimethylbenzyl)amino)-1H-pyrazole-4-carboxamide]
Kd [1]: 100 to 1000 nM
Kd [2]: > 1000 nM
RCK:JAK2 selectivity ratio [2]: C (C represents 1<Kd (JAK2): Kd (RCK)<10)
Kd [3]: > 1000 nM
RCK:JAK3 selectivity ratio [3]: B (B represents 10<Kd (JAK3): Kd (RCK)<100)

Cc1cc(Nc2n[nH]c(NCc3ccc(O)cc3)c2C(N)=O)ccc1N1CCOCC1
Kd [1]: < 50 nM
